Data on one compound can be found in patent US20220016241A1, “COMPOSITIONS AND METHODS FOR REDUCING ANTIGEN-SPECIFIC IMMUNOGENICITY” (The Research Foundation for The State University of New York, priority 2013, published 2022).

One series has as its system anti-FVIII titers. Nature of the series: Tolerance induction and FVIII re-challenge study (FVIII, FVIII plus OPLS, FVIII plus Dexamethasone). It is filed as in vivo, HA mice. The following applies: co-administered sc with 1 μg FVIII, 4 weekly. As for the experimental part: Tolerance induction studies in HA mice: Breeding pairs of exon 16 knockout transgenic hemophilic mice (HA) were used. All animal studies were conducted in accordance with an approved protocol by the Institutional Animal Use and Care Committee at the University at Buffalo, State University of New York.
Immunization and re-challenge schedule: To delineate whether OPLS mediated reduction of antibody titer is due to immune tolerance or immune suppression, we performed re-challenge experiments. Forty HA mice were pre-treated with FVIII, FVIII plus OPLS or FVIII plus Dexamethasone once-a-week for four consecutive weeks by sc injections of endotoxin free formulation of 1 μg of FVIII alone or with 5 mg OPLS or 200 ng Dexamethasone (Dex) as shown in FIG. 32. The injections were prepared in TRIS buffers containing 25 mM TRIS and 150 mM NaCl at pH 7.5. For OPLS containing formulations, OPLS was added to the buffer and the pH adjusted to 7.5. The appropriate amount of FVIII was added immediately before injection to prevent complexation between FVIII and OPLS pre-injection. […] Total anti-FVIII titer levels were measured by ELISA.
Statistics: Non-parametric one-way ANOVA with Tukey's post hoc analysis was used for the analysis of titer values where appropriate. Student t-test was used for comparing mean intensity of fluorescence (MIF) for flow cytomerty data. […]

The next series relates to anti-GAA total titers. Nature of the series: OPLS-GAA sequential administration study. The following applies: for Total titers (ELISA), week 11 after re-challenge: rechallenge 4 weekly 1 μg rhGAA; for Total titers (ELISA), week 6: 4 weekly sc. Format: in vivo, Mice. Here is the method: This examples describes OPLS-GAA sequential administration study. To determine if OPLS can exert its immunomodulatory effects on the immune response to GAA when the two are administered in separate spaced injections, at the same injection site the following experiments were carried out. Mice (n=6 animals/group) were immunized with 4 weekly sc injections as follows. One group of animals received one single combined injection of 5 mg OPLS and 1 μg rhGAA(100 μl volume). Recombinant human GAA was produced by Creative Biomart. The second group received one injection of 5 mg OPLS (100 μl volume) then after a 5 minute wait they received a second injection of 1 μg rhGAA in sterile TRIS (100 μl volume) in the same injection site. The final control group received one injection of sterile TRIS (100 μl volume) then after a 5 minute wait they received a second injection of 1 μg rhGAA in sterile TRIS (100 μl volume) in the same injection site. After a two week rest period a saphenous blood sample was collected. All of the mice were then rechallenged with 4 weekly injections of 1 μg of rhGAA in 100 μl sterile TRIS (one single injection). Analysis was done by ELISA for total titers. The mean free GAA after 6 weeks was 3135±910, When co-administered, the GAA was 787±155, and when administered separately (sequentially), the GAA was 926±202 (FIG. 26). After re-challenge, terminal sampling was done at week 11. The mean free GAA after 11 weeks was 8775±2363, When co-administered, the GAA was 895±335, and when administered separately (sequentially), the GAA was 1884±761. […] Either administration method was able to induce a hypo-responsiveness towards GAA.
For orientation: ELISA stands for enzyme-linked immunosorbent assay.

Series [1] has as its system anti-Humira antibody titers. Description: Effect of OPLS on immunogenicity of adalimumab. To be noted: 5 mg OPLS with Humira s.c., 4 weekly injections, 2 weeks washout. Format: in vivo, mice. Here is the method: Methods: n=8 animals/group were immunized with 4 weekly s.c. injections of 10 μg of adalimumab in 100 μl of either sterile TRIS for the free group or in 5 mg OPLS in sterile TRIS for the OPLS-Adalimumab group. After a 2 week rest period, a blood sample from the saphenous vein was collected for titer analysis. Titer values were obtained by classical sandwitch ELISA. Briefly, Nunc-Maxisorb 96-well plates were coated overnight at 4° C. with 50 μl/well of 2.5 μg/ml Humira. Plates were then washed and blocked with 1% bovine serum albumin (blocking buffer). 50 μl/well of various dilutions of the sample were added to the plate and incubated at room temperature for 2 h. Plasma samples from animals exposes to a sham treatment (buffer only) served as controls. The plates were then washed and incubated with 50 μl of goat anti-mouse anti-body-HRP conjugate at a 1:50000 dilution in blocking buffer at room temperature for 1 h. Color was developed for 20 min with 100 μl of TMB solution. 100 μl of 2 N H2SO4 was used to stop the reaction. Optical density at […] was measured using a plate reader. Non-responders were given the value of the plate specific factor for uniformity.

Series [2] can be described thus: Plasma chemistry markers after 21 daily doses of OPLS. It is filed as in vivo, rhesus macaques. The following applies: 21 daily doses of 25 mg/kg, days 0, 8, 22. As for the experimental part: FIG. 24. Effect of 21 daily doses of 25 mg/kg OPLS on plasma chemistry markers of rhesus macaques. Samples were drawn from the animals at baseline (day 0), at an intermediate time point during treatment (day 8) and 1 day after the termination of dosing (day 22).

A further series has as its system anti-FVIII total titers. Nature of the series: OPLS-FVIII sequential administration study. Format: in vivo, Hemophilia A mice. To be noted: 5 mg OPLS then 1 μg FVIII 5 minutes later, same site, 4 weekly sc; 4 weekly iv rechallenge. As for the experimental part: To determine if OPLS can exert its immunomodulatory effects on the immune response to FVIII when the two are administered in separate injections temporally spaced apart, at the same injection site the following experiments were carried out. Hemophilia A mice (n=6 animals/group) were immunized with 4 weekly sc injections as follows. The control group of animals received one injection of sterile TRIS buffer (100 μL volume) then, after a 5 minute wait, they received a second injection of 1 μg FVIII in sterile TRIS (100 μL volume) at the same injection site. The second group of mice received one injection of 5 mg OPLS (100 μL volume) then, after a 5 minute wait, they received a second injection of 1 μg FVIII in sterile TRIS (100 μL volume) at the same injection site. After a two-week rest period (week 6) all of the mice were then rechallenged with 4 weekly intravenous injections of 1 μg of FVIII in 100 μL sterile TRIS […]. Mice were sacrificed after two weeks and a terminal blood sample was collected using cardiac puncture. Analysis was done by ELISA for total titers. […] This administration method was able to induce a hypo-responsiveness towards FVIII.

For the compound `N[C@@H](COP(=O)(O)O)C(=O)O` [OPLS, O-Phospho-L-Serine], the “Anti-FVIII antibody response during the pre-treatment stage” value in the series with anti-FVIII titers was “reduced”. Also, the “Total titers (ELISA), week 11 after re-challenge” value in the series on anti-GAA total titers (co-administered with 5 mg OPLS) is reported as 895±335; with anti-GAA total titers (sequential, 5 mg OPLS 5 min before GAA), 1884±761. The “Total titers (ELISA), week 6” value in the series on anti-GAA total titers (co-administered: single combined injection 5 mg OPLS and 1 μg rhGAA) was found to be 787±155; in the series with anti-GAA total titers (sequential: 5 mg OPLS then 1 μg rhGAA 5 min later, same site), 926±202. The “Anti-Humira antibody titers vs Humira alone” value in series [1] is reported as “lower”. Also, in series [2], the “Impact on renal and hepatic function (plasma chemistry markers)” value is listed as “no impact”. Also, in the series with anti-FVIII total titers, the “Total anti-FVIII titers after rechallenge vs free FVIII” value is “significantly lower”.
